The values below come from patent US20250296959A1, “B7-H3 TARGETING PEPTIDES AND CONSTRUCTS THEREOF” (Mariana Oncology Inc., priority 2024, published 2025).

The target of the experiment is T1, human 4lg B7-H3 (Homo sapiens, UniProt Q5ZPR3).
T1 sequence (Q5ZPR3 29-534): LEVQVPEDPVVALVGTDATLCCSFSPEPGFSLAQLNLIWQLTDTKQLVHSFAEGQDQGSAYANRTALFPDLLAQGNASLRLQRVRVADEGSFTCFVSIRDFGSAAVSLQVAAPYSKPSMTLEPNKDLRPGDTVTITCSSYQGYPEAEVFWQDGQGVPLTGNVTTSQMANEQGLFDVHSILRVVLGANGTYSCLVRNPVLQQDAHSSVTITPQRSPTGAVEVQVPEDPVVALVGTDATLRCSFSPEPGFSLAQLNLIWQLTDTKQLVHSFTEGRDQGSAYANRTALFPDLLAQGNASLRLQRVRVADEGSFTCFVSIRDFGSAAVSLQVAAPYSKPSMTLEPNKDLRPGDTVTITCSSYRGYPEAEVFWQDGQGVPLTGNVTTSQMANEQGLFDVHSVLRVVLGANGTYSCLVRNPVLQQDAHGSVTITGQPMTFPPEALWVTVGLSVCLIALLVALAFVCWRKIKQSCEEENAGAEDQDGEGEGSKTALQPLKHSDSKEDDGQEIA
Briefly: Affinity determination by surface plasmon resonance (SPR) to 4Ig B7-H3. The settings on record: 4Ig B7-H3.

[1] abbreviates: SPR KD—25° C., 25° C. flow cell temperature.
[2] abbreviates: SPR KD—37° C., 37° C. flow cell temperature.

Starred links: 1 amine or outer side, 2 acyl side, 3 side chain; linkers in the order of their positions; H or OH if unused. Positions of bridges follow the written chain, without caps; N, C: chain ends. Non-standard residues stand in square brackets, D forms with d. Residues, ends and D or L forms follow the SMILES beside them. Groups on a side chain read outwards from the residue. ξ: configuration not given here. *: point of attachment. Ala(piperidin-4-yl) = O=C([C@H](CC1CCN([*:3])CC1)N[*:1])[*:2]; DOTA = O=C(O)CN1CCN(CC(=O)O)CCN(CC(=O)*)CCN(CC(=O)O)CC1; Trp(5-F) = N[C@@H](Cc1c[nH]c2ccc(F)cc12)C(=O)O; γGlu = O=C(O)[C@H](CCC(=O)[*:2])N[*:1]; 1Nal = N[C@@H](Cc1cccc2ccccc12)C(=O)O; Ala(4-THP) = N[C@@H](CC1CCOCC1)C(=O)O; AEF = NCCOc1ccc(C[C@H](N)C(=O)O)cc1; Ile(3-Me) = CCC(C)(C)[C@H](N)C(=O)O; Val(3-OH) = CC(C)(O)[C@H](N)C(=O)O; αMeF = C[C@](N)(Cc1ccccc1)C(=O)O; 4Pal = N[C@@H](Cc1ccncc1)C(=O)O; Cha = N[C@@H](CC1CCCCC1)C(=O)O; Gly(cPr) = N[C@H](C(=O)O)C1CC1; Tle = CC(C)(C)[C@H](N)C(=O)O; hLeu = CC(C)CC[C@H](N)C(=O)O; NMeS = CN[C@@H](CO)C(=O)O; ξF = NC(Cc1ccccc1)C(=O)O

The Kd is a measure of binding affinity in units of concentration. The low end stands for higher affinity, the high end for lower affinity. Under setting [1], `CC(=O)N[C@@H](CCC(C)C)C(=O)N[C@@H](Cc1ccc(O)cc1)C(=O)N[C@H]1CSSC[C@@H](C(=O)N[C@@H](Cc2c[nH]c3ccc(F)cc23)C(=O)N[C@@H](Cc2ccccc2)C(=O)N2CCC[C@H]2C(=O)N[C@H](CCCCNC(=O)CN2CCN(CC(=O)O)CCN(CC(=O)O)CCN(CC(=O)O)CC2)C(N)=O)NC(=O)[C@H](Cc2ccc(O)cc2)NC(=O)[C@H](C(C)C)NC(=O)[C@H](CC(=O)O)NC(=O)[C@H](Cc2ccc(O)cc2)NC(=O)[C@H](CCCCN)NC(=O)CNC(=O)[C@H](C(C)(C)C)NC1=O` [compound 248, Ac-hLeu-Y-C-Tbg-G-K-Y-D-V-Y-C-5FW-F-Pro-dLys(DOTA)-CONH2] (Ac-[hLeu]YC[Tle]GKYDVYC[Trp(5-F)]FP[dK](DOTA)-NH2; disulfide 3-11) yielded a Kd of 1 to 10 nM.
`CC[C@H](C)[C@@H]1NC(=O)[C@@H](NC(=O)[C@H](Cc2ccc(O)cc2)NC(=O)[C@H](CCC(C)C)NC(C)=O)CSSC[C@@H](C(=O)N[C@@H](Cc2c[nH]c3ccc(F)cc23)C(=O)N[C@@H](Cc2ccccc2)C(=O)N2CCC[C@H]2C(N)=O)NC(=O)[C@H](Cc2ccc(O)cc2)NC(=O)[C@H](C(C)C)NC(=O)[C@H](CC(=O)O)NC(=O)[C@H](CC2CCOCC2)NC(=O)[C@H](CCCCNC(=O)CN2CCN(CC(=O)O)CCN(CC(=O)O)CCN(CC(=O)O)CC2)NC(=O)CNC1=O` [compound 261, Ac-hLeu-Y-C-Ile-G-Lys(DOTA)-ThpA-D-V-Y-C-5FW-F-Pro-CONH2] (Ac-[hLeu]YCIGK(DOTA)[Ala(4-THP)]DVYC[Trp(5-F)]FP-NH2; disulfide 3-11) returned a Kd under setting [1] of 1 to 10 nM.
`CC(=O)N[C@@H](CCC(C)C)C(=O)N[C@@H](Cc1ccc(O)cc1)C(=O)N[C@H]1CSSC[C@@H](C(=O)N[C@@H](Cc2c[nH]c3ccc(F)cc23)C(=O)N[C@@H](Cc2ccccc2)C(=O)N[C@H](C(=O)N[C@H](CCCCNC(=O)CN2CCN(CC(=O)O)CCN(CC(=O)O)CCN(CC(=O)O)CC2)C(=O)O)C(C)(C)O)NC(=O)[C@H](Cc2ccc(O)cc2)NC(=O)[C@H](C(C)C)NC(=O)[C@H](CC(=O)O)NC(=O)[C@H](CC2CCOCC2)NC(=O)[C@@H]2CCCN2C(=O)CNC(=O)[C@H](C(C)(C)C)NC1=O` [compound 349, Ac-hLeu-Y-C-Tbg-G-Pro-ThpA-D-V-Y-C-5FW-F-hydroxyVal-dLys(DOTA)-COOH] (Ac-[hLeu]YC[Tle]GP[Ala(4-THP)]DVYC[Trp(5-F)]F[Val(3-OH)][dK](DOTA)-OH; disulfide 3-11) returned a Kd under setting [2] of 10 to 100 nM.
In the case of `CCC(C)(C)[C@@H]1NC(=O)[C@@H](NC(=O)[C@H](Cc2ccc(O)cc2)NC(=O)[C@H](CCC(C)C)NC(C)=O)CSSC[C@@H](C(=O)N[C@@H](Cc2c[nH]c3ccc(F)cc23)C(=O)N[C@@H](Cc2ccccc2)C(=O)N[C@H](C(=O)N[C@H](CCCCNC(=O)CN2CCN(CC(=O)O)CCN(CC(=O)O)CCN(CC(=O)O)CC2)C(=O)O)C(C)(C)O)NC(=O)[C@H](Cc2ccc(O)cc2)NC(=O)[C@H](C(C)C)NC(=O)[C@H](CC(=O)O)NC(=O)[C@H](CC2CCOCC2)NC(=O)[C@H](CC2CCNCC2)NC(=O)CNC1=O` [compound 432, Ac-hLeu-Y-C-betaMelle-G-PipAla-ThpA-D-V-Y-C-5FW-F-hydroxyVal-dLys(DOTA)-COOH] (Ac-[hLeu]YC[Ile(3-Me)]G[Ala(piperidin-4-yl)][Ala(4-THP)]DVYC[Trp(5-F)]F[Val(3-OH)][dK](DOTA)-OH; disulfide 3-11), under setting [2], the Kd is < 1 nM.
Take `CC(=O)N[C@@H](CCC(C)C)C(=O)N[C@@H](Cc1ccc(O)cc1)C(=O)N[C@H]1CSSC[C@@H](C(=O)N[C@@H](Cc2c[nH]c3ccc(F)cc23)C(=O)N[C@@H](Cc2ccccc2)C(=O)N[C@H](C(=O)N[C@H](CCCCNC(=O)CN2CCN(CC(=O)O)CCN(CC(=O)O)CCN(CC(=O)O)CC2)C(=O)O)C(C)(C)O)NC(=O)[C@H](Cc2ccc(O)cc2)NC(=O)[C@H](C(C)C)NC(=O)[C@H](CC(=O)O)NC(=O)[C@H](CC2CCC(O)CC2)NC(=O)[C@H](CC2CCNCC2)NC(=O)CNC(=O)[C@H](C(C)(C)C)NC1=O` (single isomer, unassigned) [compound 479, Ac-hLeu-Y-C-Tbg-G-PipAla-4OHCha(pk1)-D-V-Y-C-5FW-F-hydroxyVal-dLys(DOTA)-COOH]: the Kd under setting [2] was < 1 nM.
`CC(=O)N[C@@H](CCC(C)C)C(=O)N[C@@H](Cc1ccc(O)cc1)C(=O)N[C@H]1CSSC[C@@H](C(=O)N[C@@H](Cc2c[nH]c3ccc(F)cc23)C(=O)N[C@@H](Cc2ccccc2)C(=O)N[C@H](C(N)=O)[C@@H](C)O)NC(=O)[C@H](Cc2ccc(OCCNC(=O)CN3CCN(CC(=O)O)CCN(CC(=O)O)CCN(CC(=O)O)CC3)cc2)NC(=O)[C@H](C(C)C)NC(=O)[C@H](CC(=O)O)NC(=O)[C@H](Cc2ccc(O)cc2)NC(=O)[C@H](CCCCN)NC(=O)CNC(=O)[C@H](C(C)C)NC1=O` [compound 191, Ac-hLeu-Y-C-V-G-K-Y-D-V-AEF(DOTA)-C-5FW-F-Thr-CONH2] (Ac-[hLeu]YCVGKYDV[AEF](DOTA)C[Trp(5-F)]FT-NH2; disulfide 3-11) displayed a Kd under setting [1] of 1 to 10 nM.
On to `CC(=O)N[C@@H](CCC(C)C)C(=O)N[C@@H](Cc1ccc(O)cc1)C(=O)N[C@H]1CSSC[C@@H](C(=O)N[C@@H](Cc2c[nH]c3ccccc23)C(=O)N[C@@H](Cc2ccccc2)C(=O)N[C@H](C(=O)N[C@H](CCCCNC(=O)CN2CCN(CC(=O)O)CCN(CC(=O)O)CCN(CC(=O)O)CC2)C(N)=O)[C@@H](C)O)NC(=O)[C@H](Cc2ccc(O)cc2)NC(=O)[C@H](C(C)C)NC(=O)[C@H](CC(=O)O)NC(=O)[C@H](Cc2ccc(O)cc2)NC(=O)[C@H](CCCCN)NC(=O)CNC(=O)[C@H](C2CC2)NC1=O` [compound 119, Ac-hLeu-Y-C-Cpg-G-K-Y-D-V-Y-C-W-F-Thr-dLys(DOTA)-CONH2] (Ac-[hLeu]YC[Gly(cPr)]GKYDVYCWFT[dK](DOTA)-NH2; disulfide 3-11), for which the Kd under setting [1] was in the range of 10 to 100 nM.
`CC(=O)N[C@@H](CCC(C)C)C(=O)N[C@@H](Cc1ccc(O)cc1)C(=O)N[C@H]1CSSC[C@@H](C(=O)N[C@@H](Cc2cccc3ccccc23)C(=O)NC(Cc2ccccc2)C(=O)N2CCC[C@H]2C(=O)N[C@H](CCCCNC(=O)CC[C@H](NC(=O)CN2CCN(CC(=O)O)CCN(CC(=O)O)CCN(CC(=O)O)CC2)C(=O)O)C(N)=O)NC(=O)[C@H](Cc2ccc(O)cc2)NC(=O)[C@H](C(C)C)NC(=O)[C@H](CC(=O)O)NC(=O)[C@H](CC2CCCCC2)NC(=O)[C@H](CC2CCNCC2)NC(=O)CNC(=O)[C@H](C(C)(C)C)NC1=O` (stereo partly drawn) [compound 277, Ac-hLeu-Y-C-Tbg-G-PipAla-CHA-D-V-Y-C-1Nal-F-Pro-dLys(gE-DOTA)-CONH2] (Ac-[hLeu]YC[Tle]G[Ala(piperidin-4-yl)][Cha]DVYC[1Nal][ξF]P[dK]([γGlu-DOTA])-NH2; disulfide 3-11) returned a Kd under setting [1] of 1 to 10 nM.
`CC(=O)N[C@@H](CCC(C)C)C(=O)N[C@@H](Cc1ccc(O)cc1)C(=O)N[C@H]1CSSC[C@@H](C(=O)N[C@@H](Cc2c[nH]c3ccc(F)cc23)C(=O)N[C@@](C)(Cc2ccccc2)C(=O)N[C@H](C(=O)N[C@H](CCCCNC(=O)CN2CCN(CC(=O)O)CCN(CC(=O)O)CCN(CC(=O)O)CC2)C(N)=O)[C@@H](C)O)NC(=O)[C@H](Cc2ccc(O)cc2)NC(=O)[C@H](C(C)C)NC(=O)[C@H](CC(=O)O)NC(=O)[C@H](Cc2ccc(O)cc2)NC(=O)[C@H](CCCCN)NC(=O)CNC(=O)[C@H](C(C)C)NC1=O` [compound 168, Ac-hLeu-Y-C-V-G-K-Y-D-V-Y-C-5FW-aMePhe-Thr-dLys(DOTA)-CONH2] (Ac-[hLeu]YCVGKYDVYC[Trp(5-F)][αMeF]T[dK](DOTA)-NH2; disulfide 3-11) returned a Kd under setting [1] of 100 to 300 nM.
Under setting [1], `CC(=O)N[C@@H](CCC(C)C)C(=O)N[C@@H](Cc1ccc(O)cc1)C(=O)N[C@H]1CSSC[C@@H](C(=O)N[C@@H](Cc2c[nH]c3ccccc23)C(=O)N[C@@H](Cc2ccccc2)C(=O)N[C@H](C(N)=O)[C@@H](C)O)NC(=O)[C@H](Cc2ccc(O)cc2)NC(=O)[C@H](CCCCNC(=O)CN2CCN(CC(=O)O)CCN(CC(=O)O)CCN(CC(=O)O)CC2)NC(=O)[C@H](CC(=O)O)NC(=O)[C@H](Cc2ccc(O)cc2)NC(=O)[C@H](CCCCN)NC(=O)CNC(=O)[C@H](C(C)C)NC1=O` [compound 143, Ac-hLeu-Y-C-V-G-K-Y-D-Lys(DOTA)-Y-C-W-F-Thr-CONH2] (Ac-[hLeu]YCVGKYDK(DOTA)YCWFT-NH2; disulfide 3-11) had a Kd of 10 to 100 nM.
The compound `CC(=O)N[C@@H](CCC(C)C)C(=O)N[C@@H](Cc1ccc(O)cc1)C(=O)N[C@H]1CSSC[C@@H](C(=O)N[C@@H](Cc2cccc3ccccc23)C(=O)N[C@@H](Cc2ccccc2)C(=O)N(C)[C@@H](CO)C(=O)N[C@H](CCCCNC(=O)CN2CCN(CC(=O)O)CCN(CC(=O)O)CCN(CC(=O)O)CC2)C(N)=O)NC(=O)[C@H](Cc2ccc(O)cc2)NC(=O)[C@H](C(C)C)NC(=O)[C@H](CC(=O)O)NC(=O)[C@H](Cc2ccncc2)NC(=O)[C@H](CCCCN)NC(=O)CNC(=O)[C@H](C(C)(C)C)NC1=O` [compound 219, Ac-hLeu-Y-C-Tbg-G-K-4PyA-D-V-Y-C-1Nal-F-NMeSer-dLys(DOTA)-CONH2] (Ac-[hLeu]YC[Tle]GK[4Pal]DVYC[1Nal]F[NMeS][dK](DOTA)-NH2; disulfide 3-11) had a Kd under setting [1] of 1 to 10 nM.
